In US20190218187A1, “Novel 5-substituted imidazolylmethyl derivatives” (Bayer CropScience Aktiengesellschaft, priority 2016, published 2019):
Like-named read-outs stand apart in the source and are kept apart here.

Experiments:
[1] = LogP by HPLC on reversed phase columns (EEC directive 79/831 Annex V.A8); assay type: physicochemical; conditions: method [a]: LC-UV, acidic range, 0.1% formic acid in water and acetonitrile as eluent (linear gradient 10% to 95% acetonitrile); for chromatographic logP: reversed phase HPLC column
Description: [table] If more than one LogP value is available within the same method, all the values are given and separated by “+”. Calibration was done with straight-chain alkan2-ones (with 3 to 16 carbon atoms) with known LogP values (measurement of LogP values using retention times with linear interpolation between successive alkanones). Lambda-max-values were determined using UV-spectra from 200 nm to 400 nm and the peak values of the chromatographic signals.

[2] = test system: Septoria tritici; assay: In vivo preventive test on Septoria tritici (leaf spot on wheat); conditions: Zymoseptoria tritici, 576 h, read-out: efficacy
Description: Example B: In Vivo Preventive Test on Septoria tritici (Leaf Spot on Wheat)
(§1) The active ingredients are made soluble and homogenized in a mixture of Dimethyl sulfoxide/Acetone/Tween® 80 and then diluted in water to the desired concentration.
The young plants of wheat are treated by spraying the active ingredient prepared as described above. Control plants are treated only with an aqueous solution of Acetone/Dimethyl sulfoxide/Tween® 80.
After 24 hours, the plants are contaminated by spraying the leaves with an aqueous suspension of Septoria tritici spores. The contaminated wheat plants are incubated for 72 hours at 18° C. and at 100% relative humidity and then for 21 days at 20° C. and at 90% relative humidity.
The test is evaluated 24 days after the inoculation. 0% means an efficacy which corresponds to that of the control plants while an efficacy of 100% means that no disease is observed.

[3] = test system: Sphaerotheca fuliginea; assay: In vivo preventive test on Sphaerotheca fuliginea (powdery mildew on cucurbits); conditions: Podosphaera fuliginea, 360 h, read-out: efficacy
Description: Example C: In Vivo Preventive Test on Sphaerotheca fuliginea (Powdery Mildew on Cucurbits)
as §1
The young plants of gherkin are treated by spraying the active ingredient prepared as described above. Control plants are treated only with an aqueous solution of Acetone/Dimethyl sulfoxide/Tween® 80.
After 24 hours, the plants are contaminated by spraying the leaves with an aqueous suspension of Sphaerotheca fuliginea spores. The contaminated gherkin plants are incubated for 72 hours at 18° C. and at 100% relative humidity and then for 12 days at 20° C. and at 70-80% relative humidity.
The test is evaluated 15 days after the inoculation. 0% means an efficacy which corresponds to that of the control plants while an efficacy of 100% means that no disease is observed.

[4] = 500 ppm of active ingredient, wheat plants, preventive spray, evaluated 24 days after inoculation, 100% = no disease
[5] = 500 ppm of active ingredient, gherkin plants, preventive spray, evaluated 15 days after inoculation, 100% = no disease

SMILES | LogP [1] | further results
CC(C)(C)c1ccc(CCC(O)(Cn2cncc2C#N)C2(Cl)CC2)cc1 (stereo not drawn) [I-01] | 4.18 ^[a] | –
CC(C)(C)C(O)(CCc1ccc(Cl)cc1)Cn1cncc1C#N (stereo not drawn) [I-02, 3-[2-[2-(4-chlorophenyl)ethyl]-2-hydroxy-3,3-dimethyl-butyl]imidazole-4-carbonitrile] | – | pest or weed control at 500 ppm [2, 4]: 90 to 100%; pest or weed control at 500 ppm [3, 5]: 90 to 100%; chromatographic logP [1]: 3.31
N#Cc1cncn1CC(O)(CCc1ccc(C(F)(F)F)cc1)C1(F)CC1 (stereo not drawn) [I-03, 3-[2-(1-fluorocyclopropyl)-2-hydroxy-4-[4-(trifluoromethyl)phenyl]butyl]imidazole-4-carbonitrile] | – | pest or weed control at 500 ppm [2, 4]: 90 to 100%; pest or weed control at 500 ppm [3, 5]: 90 to 100%; chromatographic logP [1]: 3.15
CC(C)(C)C(O)(CCc1ccc(Cl)cc1)Cn1cncc1Cl (stereo not drawn) [I-04] | 2.78 ^[a] | –
CC(C)(C)C(O)(CCc1ccc(Cl)cc1)Cn1cncc1C=O (stereo not drawn) [I-05] | 3.02 ^[a] | –
CC(C)(C)C(O)(CCc1ccc(Cl)cc1)Cn1cncc1F (stereo not drawn) [I-06, 1-(4-chlorophenyl)-3-[(5-fluoroimidazol-1-yl)methyl]-4,4-dimethyl-pentan-3-ol] | – | pest or weed control at 500 ppm [2, 4]: 80 to 89%; pest or weed control at 500 ppm [3, 5]: 90 to 100%; chromatographic logP [1]: 2.25
N#Cc1cncn1CC(O)(CCc1ccccc1)C1(Cl)CC1 (stereo not drawn) [I-07] | 2.88 ^[a] | –
N#Cc1cncn1CC(O)(CCc1ccc(C(F)(F)F)cc1)C1(Cl)CC1 (stereo not drawn) [I-08] | 3.48 ^[a] | –
CC(C)(C)c1ccc(CCC(O)(Cn2cncc2C#N)C2(F)CC2)cc1 (stereo not drawn) [I-09] | 3.78 ^[a] | –
N#Cc1cncn1CC(O)(CCc1ccccc1)C1(F)CC1 (stereo not drawn) [I-10, 3-[2-(1-fluorocyclopropyl)-2-hydroxy-4-phenyl-butyl]imidazole-4-carbonitrile] | – | pest or weed control at 500 ppm [2, 4]: 90 to 100%; pest or weed control at 500 ppm [3, 5]: 90 to 100%; chromatographic logP [1]: 2.53
CC(C)(C)C(O)(CCc1ccc(Cl)cc1)Cn1cncc1Br (stereo not drawn) [I-11] | 2.75 ^[a] | –
OC(CCc1ccc(Cl)cc1)(Cn1cncc1Cl)C1(Cl)CC1 (stereo not drawn) [I-12] | 2.73 ^[a] | –
CC(C)(CC(O)(Cn1cncc1C#N)C1(Cl)CC1)c1ccccc1 (stereo not drawn) [I-13, 1-[2-(1-chlorocyclopropyl)-2-hydroxy-4-methyl-4-phenylpentyl]-1H-imidazole-5-carbonitrile] | – | pest or weed control at 500 ppm [2]: 90 to 100%; pest or weed control at 500 ppm [3]: 90 to 100%; chromatographic logP [1]: 3.09
N#Cc1cncn1CC(O)(CCc1ccc(OC(F)(F)F)cc1)C1(F)CC1 (stereo not drawn) [I-14] | 3.29 ^[a] | –
N#Cc1cncn1CC(O)(CCc1ccc(F)cc1F)C1(F)CC1 (stereo not drawn) [I-15] | 2.69 ^[a] | –
N#Cc1cncn1CC(O)(CCc1ccc(OC(F)(F)F)c(F)c1)C1(Cl)CC1 (stereo not drawn) [I-16] | 3.69 ^[a] | –
Cc1ccc(CCC(O)(Cn2cncc2C#N)C2(F)CC2)cc1 (stereo not drawn) [I-17] | 2.90 ^[a] | –
N#Cc1cncn1CC(O)(CCc1ccc(Cl)cc1)C1(Cl)CC1 (stereo not drawn) [I-18, 3-[2-(1-chlorocyclopropyl)-4-(4-chlorophenyl)-2-hydroxy-butyl]imidazole-4-carbonitrile] | – | pest or weed control at 500 ppm [2, 4]: 90 to 100%; pest or weed control at 500 ppm [3, 5]: 90 to 100%; chromatographic logP [1]: 3.42
Cc1ccc(CCC(O)(Cn2cncc2C#N)C2(Cl)CC2)cc1 (stereo not drawn) [I-19] | 3.23 ^[a] | –
CC(C)(C)C(O)(CCc1ccccc1)Cn1cncc1C#N (stereo not drawn) [I-20] | 2.90 ^[a] | –
CC1(c2ccc(CCC(O)(Cn3cncc3C#N)C3(F)CC3)cc2)CC1 (stereo not drawn) [I-21] | 3.55 ^[a] | –
N#Cc1cncn1CC(O)(CCc1ccc(Cl)cc1)C1(F)CC1 (stereo not drawn) [I-22] | 2.98 ^[a] | –
N#Cc1cncn1CC(O)(CCc1cccnc1)C1(F)CC1 (stereo not drawn) [I-23] | 0.53 ^[a] | –
CC1(c2ccc(CCC(O)(Cn3cncc3C#N)C3(Cl)CC3)cc2)CC1 (stereo not drawn) [I-24] | 4.03 ^[a] | –
N#Cc1cncn1CC(O)(CCc1ccc(Cl)cc1F)C1(F)CC1 (stereo not drawn) [I-25] | 3.00 ^[a] | –
N#Cc1cncn1CC(O)(CCc1ccccc1F)C1(F)CC1 (stereo not drawn) [I-26] | 2.56 ^[a] | –
N#Cc1cncn1CC(O)(CCc1ccc(Cl)nc1)C1(F)CC1 (stereo not drawn) [I-27] | 2.03 ^[a] | –

SMILES | LogP [1] | further results
N#Cc1cncn1CC(O)(CCc1ccc(Cl)nc1)C1(Cl)CC1 (stereo not drawn) [I-28, 3-[2-(1-chlorocyclopropyl)-4-(6-chloro-3-pyridyl)-2-hydroxy-butyl]imidazole-4-carbonitrile] | – | pest or weed control at 500 ppm [2, 4]: 90 to 100%; pest or weed control at 500 ppm [3, 5]: 90 to 100%; chromatographic logP [1]: 2.39
Cc1ccc(CCC(O)(Cn2cncc2C#N)C(C)(C)C)cc1 (stereo not drawn) [I-29] | 3.22 ^[a] | –
N#Cc1cncn1CC(O)(CCc1ccc(Cl)cc1)C1CC1 (stereo not drawn) [I-30] | 2.90 ^[a] | –
N#Cc1cncn1CC(O)(CCc1ccccc1)C1CC1 (stereo not drawn) [I-31] | 2.49 ^[a] | –
N#Cc1cncn1CC(O)(CCc1ccc(Cl)cc1F)C1(Cl)CC1 (stereo not drawn) [I-32] | 3.41 ^[a] | –
N#Cc1cncn1CC(O)(CCc1ccc(F)nc1)C1(Cl)CC1 (stereo not drawn) [I-33] | 2.20 ^[a] | –
N#Cc1cncn1CC(O)(CCc1ccc(F)nc1)C1(F)CC1 (stereo not drawn) [I-34] | 1.88 ^[a] | –
CC(C)C(O)(CCc1ccc(Cl)cc1)Cn1cncc1C#N (stereo not drawn) [I-35] | 2.95 ^[a] | –
CC(C)C(O)(CCc1ccccc1)Cn1cncc1C#N (stereo not drawn) [I-36] | 2.53 ^[a] | –
N#Cc1cncn1CC(O)(CCc1ccc(Cl)cc1)C1CCC1 (stereo not drawn) [I-37] | 3.23 ^[a] | –
N#Cc1cncn1CC(O)(CCc1ccccc1)C1CCC1 (stereo not drawn) [I-38] | 2.80 ^[a] | –
N#Cc1cncn1CC(O)(CCc1ccccc1)c1ccc(Cl)cc1 (stereo not drawn) [I-39] | 3.46 ^[a] | –
N#Cc1cncn1CC(O)(CCc1ccc(Cl)cc1)c1ccc(Cl)cc1 (stereo not drawn) [I-40] | 3.96 ^[a] | –
CC(C)(C)C(O)(CCc1ccc(C(F)(F)F)cc1)Cn1cncc1C#N (stereo not drawn) [I-41] | 3.42 ^[a] | –
N#Cc1cncn1CC(O)(CCc1ccccc1)CC1CC1 (stereo not drawn) [I-42] | 2.62 ^[a] | –
N#Cc1cncn1CC(O)(CCc1ccc(Cl)cc1)CC1CC1 (stereo not drawn) [I-43] | 3.02 ^[a] | –
N#Cc1cncn1CC(O)(CCc1ccc(Cl)cc1F)c1ccc(Cl)cc1 (stereo not drawn) [I-44] | 3.64 ^[a] | –
N#Cc1cncn1CC(O)(CCc1ccccc1)c1ccccc1 (stereo not drawn) [I-45] | 2.74 ^[a] | –
N#Cc1cncn1CC(O)(CCc1ccc(Cl)cc1)c1ccccc1 (stereo not drawn) [I-46, 3-[4-(4-chlorophenyl)-2-hydroxy-2-phenyl-butyl]imidazole-4-carbonitrile] | – | pest or weed control at 500 ppm [2, 4]: 90 to 100%; pest or weed control at 500 ppm [3, 5]: 90 to 100%; chromatographic logP [1]: 3.13
CC1(C(O)(CCc2ccccc2)Cn2cncc2C#N)CC1 (stereo not drawn) [I-47] | 2.80 ^[a] | –
CC1(C(O)(CCc2ccc(Cl)cc2)Cn2cncc2C#N)CC1 (stereo not drawn) [I-48] | 3.22 ^[a] | –
N#Cc1cncn1CC(O)(CCc1ccccc1)c1ccc(Cl)cc1F (stereo not drawn) [I-49] | 3.37 ^[a] | –
N#Cc1cncn1CC(O)(CCc1ccc(Cl)cc1F)c1ccc(Cl)cc1F (stereo not drawn) [I-50] | 3.75 ^[a] | –
N#Cc1cncn1CC(O)(CCc1ccc(Cl)cc1)c1ccc(Cl)cc1F (stereo not drawn) [I-51] | 3.79 ^[a] | –
N#Cc1cncn1CC(O)(CCc1ccc(Cl)cc1F)c1ccccc1 (stereo not drawn) [I-52] | 3.23 ^[a] | –
N#Cc1cncn1CC(O)(CCC1Cc2ccccc2O1)C1(F)CC1 (stereo not drawn) [I-53, 1-[4-(2,3-dihydro-1-benzofuran-2-yl)-2-(1-fluorocyclopropyl)-2-hydroxybutyl]-1H-imidazole-5-carbonitrile] | – | chromatographic logP [1]: 2.61
